Earlier results in patent publication US12115373B2, “Methods for reducing the risk of strokes by pharmacotherapy to reduce the number and duration of atrial fibrillations” (Xyra, LLC, priority 2022, dated 2024).

Settings: in 2016; reported by the Market Insider; cited from earlier work

O=C(NC[C@H]1CN(c2ccc(N3CCOCC3=O)cc2)C(=O)O1)c1ccc(Cl)s1 [Xarelto, rivaroxaban]
adverse events: over 15,000
